The values that follow come from patent publication US20050042714A1, “Glycoconjugates of sialic acid derivates, methods for their production and use thereof” (priority 2001, published 2005).

Each structure is given as a SMILES string.

Assay [1] concerns B-lymphotropic papovavirus (LPV) in BJA-B K20 cells. Particulars: NeuAc treatment, stated as known; cited from earlier work.
For assay [2], the system named is HL60-I cells. Kind of assay: metabolic complementation assay: lectin staining (VVA, LFA, TLM) of analogue-treated cells by flow cytometry. Particulars: 5 mM, 24 h; for effect on VVA binding: decrease = masking of GalNAc by sialic acid. Format: cell-based, human. The protocol:
Medium supplementation with some synthetic sialic acid analogues restores cell surface sialylation in hyposialylated HL60-I cells. Cells were cultivated in the presence of indicated synthetic sialic acid analogue (5 mM) for 24 h and stained with either directly fluorochrome-coupled lectins (VVA, LFA) or biotin-coupled lectin (TLM) and streptavidin-FITC and analyzed by flow cytometry. Values are given as “relative factor of change” (RFC) of the “mean fluorescence intensity” (MFI) of sialic acid-treated cells relative to untreated cells. The bars represent arithmetic means±SD (n^34) of one (x) or ≧two experiments.
To test whether cells can incorporate synthetic sialic acid analogues from the culture medium, a metabolic complementation assay was performed on endogenously hyposialylated, UDP-GlcNAc-2-epimerase-deficient HL60-I cells.
Cells were cultivated for 24 h in the presence of one of 16 different synthetic sialic acid analogues, carrying distinct C5 or C9 modifications (FIG. 1), and subsequently, changes in cell surface sialylation were assessed by flow cytometry using three fluorochrome-conjugated sialic acid-sensitive lectins. Vicia villosa agglutinin (VVA) detects GalNAc residues, and its binding sites can be masked by the addition of terminal sialic acid residues.
In sugar supplementation assays, cells seeded at 5×10^5 cells/ml in culture medium buffered with 40 mM HEPES (pH 7.2) were cultivated for 24 h in the presence or absence of 5 mM sialic acids (stocks of 100 mM dissolved in H2O, stored at 4° C.).
(§1) Lyophilized FITC-conjugated lectins Vicia villosa (VVA) was obtained from Sigma, dissolved in H2O (1 mg/ml), aliquoted and stored at −20° C. according to the manufacturer's instructions. FITC-conjugated Limax flavus agglutinin (LFA) was from EY Laboratories (San Manteo, Calif., USA) and biotin-coupled Tritrichomonas mobilensis agglutinin (TLM) from Calbiochem. Lectin staining procedure and fluorescence-activated cell scanning on a Becton Dickinson FACScan cytometer using Cellquest II software were carried out as described (Keppler, O. T., Molden-hauer, G., Oppenländer, M., Schwartz-Albiez, R., Berger, E. G., Funderud, S., and Pawlita, M. (1992) Eur J Immunol 22(11), 2777-81). Briefly, cells (3×10^5) were washed twice in cold PBS and then incubated in 100 μl PBS/0.05% NaN3, containing either fluorochrome-conjugated lectins VVA (50 μg/ml), LFA (20 μg/ml), or biotinylated TLM (20 μg/ml) for 45 min on ice in the dark. For biotinylated TLM a secondary incubation step with steptavidin-FITC (20 μg/ml) (Sigma) for 30 min on ice in the dark is required. After washing with PBS, cells were resuspended in 300 μl PBS and analyzed by flow cytometry.

The test system of assay [3] is B-lymphotropic papovavirus (LPV) in BJA-B K88 cells. Briefly: LPV infection of analogue-treated normally sialylated cells (VP1 ELISA). Format: cell-based, human. The protocol:
(§2) Changes in permissivity for the sialic acid-dependent B-lymphotropic papovavirus (LPV) in hyposialylated (K20) and normally sialylated (K88) BJA-B cells after treatment with sialic acid analogues. Cells were treated with analogues or NeuAc for 3d. 50 h post LPV inoculation the LPV infection was quantified (A) by detecting the amount of LPV VP1 in cell lysates relative to the total protein content by ELISA and (B) by indirect immunofluorescence microscopy as percentage of LPV T-antigen-positive BJA-B K20 cells. A, values are given as arithmetic means±SD of three independent experiments. B, representatives of three experiments are shown. DAPI-staining (left) indicates the total amount of cells in the section, on the right LPV T-antigen positive cells are shown with the average percentage given beside. […]
(§3) BJA-B subclones were infected with the B-lymphotropic papovavirus (LPV) as described (Keppler, O. T., Herrmann, M., Oppenländer, M., Meschede, W., and Pawlita, M. (1994) J Virol 68(11), 6933-9). […] LPV infection was quantified by indirect immunofluorescence microscopy as percentage of LPV T-antigen positive cells and the amount of LPV VP1 in cell lysates was determined by ELISA relative to the total protein extracted.

Assay [4] relates to HL60-I cells. Briefly: uptake of peracetylated/esterified NeuAc: VVA and TML lectin staining by flow cytometry. In kind it is cell-based, human. Particulars: HL60-I cells, 0.03 to 1 mM (NeuAc 1 or 5 mM), 72 h, 0.5% DMSO. How it is done: Peracetylation of NeuAc only facilitates uptake if the carboxyl group is additionally esterified. Hyposialylated HL60-I cells were cultivated in the presence of indicated synthetic sialic acid analogue (stock solution 200 mM in DMSO) ranging from 0.03 to 1 mM or 0, 1 or 5 mM NeuA for 72 h with DMSO concentrations adjusted to 0.5%. Cells were stained with either directly fluorochrome-coupled lectin VVA, or biotin-coupled lectin (TML) and streptavidin-FITC for analysis by flow cytometry. Values given are relative factors of change of the mean fluorescence intensity of pretreated cells relative to untreated cells. The bars represent arithmetic means±SD (n=3). Molecular structures are given below the diagram.
Sugars are very hydrophilic and it has been shown that increasing the hydrophobicity by peracetylation of hydroxyl groups enables or facilitates uptake of disaccharides (Collins, B. E., Fralich, T. J., Itonori, S., Ichikawa, Y. and Schnaar, R. L. (2000) Glycobiology, 10, 11-20; Sarkar, A. K., Fritz, T. A., Taylor, W. H. and Esko, J. D. (1995) Proc Natl Acad Sci USA, 92, 3323-7; Sarkar, A. K., Rostand, K. S., Jain, R. K., Matta, K. L. and Esko, J. D. (1997) J Biol Chem, 272, 25608-16). For ManNAc derivatives it has been shown that peracetylation reduces required medium concentrations (Collins et al., 2000). The acetyl groups are cleaved-off intracellularly by cellular esterases (Collins et al., 2000; Sarkar et al., 1995; Sarkar et al., 1997) and the derivatives are then processed as known for the non-acetylated sugars. In order to address the question whether peracetylation also facilitates uptake of N-acetylneuraminic acid, HL60-I cells were cultivated in the presence of peracetylated NeuAc at concentrations ranging from 0.03 mM to 1 mM for 3 days. Changes in cell surface sialylation were measured by flow cytometry using Vicia Villosa agglutinin (VVA) and Tritrichomonas mobilensis lectin (TML). […] This represents a reduction in concentration by more than 16-fold and is in a similar range as reported for peracetylated ManNAc and ManNAc (Collins et al., 2000).
as §1
(In general: Flow cytometry measures light scatter and fluorescence of single cells or particles in a stream.)

Assay [5] deals with B-lymphotropic papovavirus (LPV) in BJA-B K20 cells. Briefly: LPV infection of analogue-treated hyposialylated cells (VP1 ELISA, T-antigen immunofluorescence). Format: cell-based, human. Particulars: BJA-B K20 cells (statement also covers K88 cells). The protocol: as §2, §3

For `CC(=O)N[C@H]1[C@H]([C@H](O)[C@H](O)CO)OC(O)(C(=O)O)C[C@@H]1O` (stereo partly shown) [NeuAc, N-acetyl neuraminic acid, reference compound], the “cells infected by LPV” value in assay [1] is on record as “about 17%”. In the assay with HL60-I cells [2], the “increase of LFA binding (relative factor of change of mean fluorescence intensity vs untreated cells)” value is 9.5 fold, the “increase of TLM binding (relative factor of change of mean fluorescence intensity vs untreated cells)” value is 4.8 fold and the “effect on VVA binding” value was “decreased markedly”. Moreover, in assay [3], the LPV-permissivity entry is listed as “did not change permissivity significantly”. Also, the “effect on cell surface sialylation (VVA and TML binding)” value in the assay with HL60-I cells [4] is “significant changes in lectin binding”.
Turning to `CC(=O)N[C@H]1[C@H]([C@H](O)[C@@H](C)O)OC(O)(C(=O)O)C[C@@H]1O` (stereo partly shown) [analogue a, 5-N-acetyl-9-deoxy-neuraminic acid], in the assay on HL60-I cells [2], the “effect on LFA binding” value is given as “increased binding of LFA”, the “effect on TLM binding” value is given as “increased binding” and the “effect on VVA binding” value is recorded as “significantly decreased VVA-binding”. Further, the LPV-permissivity entry in assay [5] is reported as “to a lesser extent”.
